Patent publication US20130251782A1, “TOPICAL APPLICATION OF INGENOL MEBUTATE WITH OCCLUSION” (LEO LABORATORIES LIMITED, priority 2012, published 2013)
Where two headings read alike, the source gives them in different places.

Columns and labels:
[1] = cited from earlier work
[2] = test system: sBCC lesion on the trunk or extremities; assay type: in vivo
Description: The primary objective of the clinical trial was to evaluate the safety of PEP005 Gel, 0.05% when administered for up to 3 consecutive days application (Day 1, 2 and 3), to a sBCC lesion on the trunk and extremities.
Another objective of the clinical trial was to evaluate the efficacy of PEP005 Gel, 0.05% when administered for up to 3 consecutive days application (Day 1, 2 and 3), to a sBCC lesion on the trunk and extremities.
This was a phase 2, multi-centre, parallel group, open-label trial to evaluate the safety and efficacy of PEP005 (ingenol mebutate) Gel, 0.05%, when administered for up to 3 consecutive days (Day 1, 2 and 3) to a sBCC lesion on the trunk or extremities.
The trial population was planned to include 75 subjects aged at least 18 years with a primary diagnosed and histologically confirmed sBCC located on the trunk or extremities which was suitable for excision.
Eligible subjects were randomised to receive physician-applied trial medication in one of the following 3 treatment groups:
Group 1) PEP005 Gel, 0.05%, up to 3 consecutive days treatment, occluded with an aluminium disk;
Group 2) PEP005 Gel, 0.05%, up to 3 consecutive days treatment, occluded with an Opsite™ disk;
Group 3) PEP005 Gel, 0.05%, up to 3 consecutive days treatment, not occluded.
Eligible subjects received PEP005 Gel on Days 1, 2 and 3. […] If tolerability to trial medication was maintained, the subjects received all 3 doses of PEP005 Gel, 0.05%, regardless of whether the sBCC lesion being treated was resolved or not.
Subsequent follow-up visits for safety assessments were made on Days 2, 3 (as applicable), 4 (as applicable), 8, 15, 29, 57, 85 and 120. Histological and clinical efficacy assessments were only conducted at Day 120. If trial medication was not administered on Day 2 a follow-up visit on Day 3 or 4 was not necessary, unless clinically indicated. If trial medication was not administered on Day 3 a follow-up visit on Day 4 was not necessary, unless clinically indicated.
The volume of PEP005 Gel applied to the selected treatment area was 30 μl for lesions with the longest axes of between 4-10 mm and 50 μl for lesions with the longest axes of between 11-15 mm.
The actual treatment analysis set included the same subjects as in the full analysis set, i.e. 75 randomised subjects. However, 2 subjects who received the wrong treatment were assigned to their actual treatment group, i.e. PEP005 Aluminium Disk.
Thus, in the actual treatment analysis set 27 subjects were included in PEP005 Aluminium Disk group and 24 subjects both in PEP005 Opsite™ Disk group and PEP005 No Occlusion group.

[3] = In vitro skin permeation and penetration of PEP005, flow through diffusion cells; assay type: in vitro ADME, pig
Description: The in vitro skin permeation and penetration of PEP005 was investigated with various types of occlusion dressings, using flow through diffusion cells. Dressings were applied immediately (without formulation drying), as well as after the formulation had dried. Additionally, PEP005 might also be absorbed into the occlusion dressing, which also was investigated.
Methods: The in vitro permeation and penetration of PEP005 into pig ear skin was studied using PermeGear® flow through diffusion cells (n=6 per formulation). The skin diffusion experiment was allowed to proceed for 21 hours into a recipient phase consisting of 0.04 M isotonic phosphate buffer pH 7.4. Samples from the different skin layers and recipient phase were collected in order to determine flux and skin distribution of PEP005. The samples were analysed by LC-MS/MS.
The test formulation used is an aqueous based gel formulation containing; PEP005 0.5 mg/g, Benzyl Alcohol 9 mg/g, Isopropanol 300 mg/g, Citric acid 5.4 mg/g, Sodium Citrate dihydrate 1.4 mg/g, Hydroxyethyl Cellulose 15 mg/g and water up to 1 g, with a formulation pH of 3.2.
Full thickness skin from pig ears was used in the study. The ears were kept frozen at −18° C. until use. Before the experiment, the ears were placed in a refrigerator (2-8° C.) for slow defrosting. The hairs were removed using a veterinary hair trimmer. The skin was cleaned for subdermal fat using a scalpel, and two pieces of skin were cut from each ear. The pieces of skin were refrozen and kept for no longer than 4 weeks. […]
The used PermeGear® automated system incorporate nine flow through diffusion cells (1-9) made of clear glass, in which the donor and receptor chambers were separated by a diffusion membrane and held together by a pinch clamp. […] The specific volume was measured and registered for each cell. […]
Prior to application of the formulation, the experiment was started by starting the pump. […] The formulation was applied using a glass spatula and the residual amount of formulation was determined, thus giving the actual amount of formulation applied to the skin. […]

Structure (SMILES): C/C=C(/C)C(=O)O[C@H]1C(C)=C[C@]23C(=O)[C@@H](C=C(CO)[C@@H](O)[C@]12O)[C@H]1[C@@H](C[C@H]3C)C1(C)C [PEP005, 2-methyl-2(Z)-butenoic acid (1aR,2S,5R,5aS,6S,8aS,9R,10aR)-5,5a-dihydroxy-4-(hydroxymethyl)-1,1,7,9-tetramethyl-11-oxo-1a,2,5,5a,6,9,10,10a-octahydro-1H-2,8a-methanocyclopenta[a]cyclopropa[e]cyclodecen-6-yl ester]
- Stability in alcohols ([1]; alcohols such as benzyl alcohol and isopropyl alcohol): good stability
- Stability at low pH ([1]; low pH): good stability
- Number of subjects who received 1 dose (dosing continued only if tolerated) ([2]; Aluminium Disk group (n = 27)): 22
- Number of subjects who received 2 doses (dosing continued only if tolerated) ([2]; Aluminium Disk group (n = 27)): 2
- Number of subjects who received 3 doses (dosing continued only if tolerated) ([2]; Aluminium Disk group (n = 27)): 13
- Subjects who received 1 dose (dosing continued only if tolerated) ([2]; Aluminium Disk group (n = 27)): 81.5%
- Subjects who received 2 doses (dosing continued only if tolerated) ([2]; Aluminium Disk group (n = 27)): 7.4%
- Subjects who received 3 doses (dosing continued only if tolerated) ([2]; Aluminium Disk group (n = 27)): 11.1%
- Number of subjects who received 1 dose (dosing continued only if tolerated) ([2]; No Occlusion group (n = 24)): 0
- Number of subjects who received 2 doses (dosing continued only if tolerated) ([2]; No Occlusion group (n = 24)): 1
- Number of subjects who received 3 doses (dosing continued only if tolerated) ([2]; No Occlusion group (n = 24)): 23
- Subjects who received 1 dose (dosing continued only if tolerated) ([2]; No Occlusion group (n = 24)): 0.0%
- Subjects who received 2 doses (dosing continued only if tolerated) ([2]; No Occlusion group (n = 24)): 4.2%
- Subjects who received 3 doses (dosing continued only if tolerated) ([2]; No Occlusion group (n = 24)): 95.8%
- Number of subjects who received 1 dose (dosing continued only if tolerated) ([2]; OpSite Disk group (n = 24)): 0
- Number of subjects who received 2 doses (dosing continued only if tolerated) ([2]; OpSite Disk group (n = 24)): 5
- Number of subjects who received 3 doses (dosing continued only if tolerated) ([2]; OpSite Disk group (n = 24)): 19
- Subjects who received 1 dose (dosing continued only if tolerated) ([2]; OpSite Disk group (n = 24)): 0.0%
- Subjects who received 2 doses (dosing continued only if tolerated) ([2]; OpSite Disk group (n = 24)): 20.8%
- Subjects who received 3 doses (dosing continued only if tolerated) ([2]; OpSite Disk group (n = 24)): 79.2%
- Increase in penetrated amount of PEP005 after occlusion compared to the non-occluded treatment ([3]; Study PMPN1028, all dressings): 2-6 fold
- Increase in permeation of PEP005 compared to the non-occluded treatment ([3]; aluminium foil, parafilm, Coloplast vinyl film and Compeed, Study PMPN1028): 9-10 fold
- Increase in skin permeation compared to the non-occluded treatment ([3]; semi-occlusive dressing Flexifix, Study PMPN1028): 3 fold
